How the values were obtained:
[1] = target: Vascular endothelial growth factor receptor 2 (Homo sapiens, UniProt P35968); assay: Inhibition of FLK1
[2] = cells; settings: Endothelial cell

Sequence of Vascular endothelial growth factor receptor 2 (P35968 whole entry): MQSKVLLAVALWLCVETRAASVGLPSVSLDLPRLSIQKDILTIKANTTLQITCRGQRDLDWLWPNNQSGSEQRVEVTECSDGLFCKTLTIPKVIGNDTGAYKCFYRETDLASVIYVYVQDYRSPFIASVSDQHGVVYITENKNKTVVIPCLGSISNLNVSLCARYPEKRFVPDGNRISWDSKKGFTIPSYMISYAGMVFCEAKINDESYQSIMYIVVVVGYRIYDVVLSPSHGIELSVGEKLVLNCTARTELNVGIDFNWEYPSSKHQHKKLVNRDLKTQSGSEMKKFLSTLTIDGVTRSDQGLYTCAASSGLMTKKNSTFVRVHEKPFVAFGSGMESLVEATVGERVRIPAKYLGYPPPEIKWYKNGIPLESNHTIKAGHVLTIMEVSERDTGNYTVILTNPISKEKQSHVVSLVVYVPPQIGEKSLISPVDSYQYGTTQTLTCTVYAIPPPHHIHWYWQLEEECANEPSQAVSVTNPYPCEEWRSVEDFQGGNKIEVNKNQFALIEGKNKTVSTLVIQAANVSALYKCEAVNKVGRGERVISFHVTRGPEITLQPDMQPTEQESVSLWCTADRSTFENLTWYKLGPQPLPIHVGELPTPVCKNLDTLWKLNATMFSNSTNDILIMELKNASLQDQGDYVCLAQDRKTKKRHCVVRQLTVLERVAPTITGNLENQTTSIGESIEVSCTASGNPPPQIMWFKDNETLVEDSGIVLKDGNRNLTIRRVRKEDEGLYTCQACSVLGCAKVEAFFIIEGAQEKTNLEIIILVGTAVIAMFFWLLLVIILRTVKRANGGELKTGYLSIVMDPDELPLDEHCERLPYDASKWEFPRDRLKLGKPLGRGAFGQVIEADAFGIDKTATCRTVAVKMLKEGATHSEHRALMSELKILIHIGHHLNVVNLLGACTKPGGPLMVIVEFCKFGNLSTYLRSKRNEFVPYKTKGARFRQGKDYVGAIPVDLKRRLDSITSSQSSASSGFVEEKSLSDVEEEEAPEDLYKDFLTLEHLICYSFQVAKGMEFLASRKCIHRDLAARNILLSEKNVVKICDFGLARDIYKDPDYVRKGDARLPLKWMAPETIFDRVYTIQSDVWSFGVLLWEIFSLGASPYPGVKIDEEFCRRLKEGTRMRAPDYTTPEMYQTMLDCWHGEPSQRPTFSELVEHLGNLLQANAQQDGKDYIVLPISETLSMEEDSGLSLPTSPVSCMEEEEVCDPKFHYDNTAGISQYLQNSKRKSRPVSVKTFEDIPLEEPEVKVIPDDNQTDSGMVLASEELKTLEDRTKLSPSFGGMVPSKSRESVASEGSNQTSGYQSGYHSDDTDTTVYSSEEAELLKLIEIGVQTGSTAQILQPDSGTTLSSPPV

SMILES	IC50 [1] [µM]	IC50 [2] [µM]
O=C1Nc2ccccc2/C1=C/c1ccc(F)cc1	9.6	5.1
Cc1cc(C)c(/C=C2\C(=O)Nc3ccccc32)[nH]1 [SEMAXANIB]	–	< 0.8

— ChEMBL document CHEMBL1152667, “Synthesis and radiopharmacological investigation of 3-[4'-[(18)F]fluorobenzylidene]indolin-2-one as possible tyrosine kinase inhibitor” (Bioorg Med Chem, 2009)
